Experimental findings from the OPERA property sets (Mansouri et al. 2018) are described below.

Peptide text beside a SMILES is read from it.

In the case of `NNC(=O)c1ccnc(Br)c1`, the logP (commonly a log measure of how a compound divides between an organic and an aqueous phase) is 0.25. `CC(=O)N[C@@H](Cc1ccc(O)cc1)C(=O)N[C@@H](CC(C)C)C(N)=O` (Ac-Tyr-Leu-NH2): the logP was determined as 0.32. To `O=Cc1ccc2cccccc1-2` belongs 2.64; to `NC(=O)[C@@H]1CCCN1C(=O)[C@H](Cc1cnc[nH]1)NC(=O)[C@@H]1CCC(=O)N1`, -2.46; to `ClCC#CCCl`, 2.01.

Consider `Nc1cccc([N+](=O)[O-])c1`, for which the lipophilicity (logP) is 1.37. In the case of `O=P(Oc1ccccc1)(Oc1ccccc1)Oc1ccccc1`, the logP came out at 4.59. As to `Nc1ccccc1C(F)(F)F`, the logP turned out to be 2.41. In turn, `CC(=O)O[C@H]1C[C@H](O[C@H]2[C@@H](O)C[C@H](O[C@H]3[C@@H](O)C[C@H](O[C@H]4CC[C@@]5(C)[C@H](CC[C@@H]6[C@@H]5C[C@@H](O)[C@]5(C)[C@@H](C7=CC(=O)OC7)CC[C@]65O)C4)O[C@@H]3C)O[C@@H]2C)O[C@H](C)[C@H]1O[C@@H]1O[C@H](CO)[C@@H](O)[C@H](O)[C@H]1O` registered a logP of 0.07.

Compound `Cc1ncc(CNC(=O)N(CCCl)N=O)c(N)n1` showed a logP of 0.39. The compound `CC(C)OC(=O)c1ccccc1C(=O)OC(C)C` displayed a logP of 2.83. To `COc1ccc(Br)cc1-c1nc(N)nc(N)n1` belongs 1.53; to `O=S1(=O)N=CNc2ccccc21`, 0.16.

Compound `O=C(O)c1cccc(O)c1` gave a logP of 1.5. In the case of `CCN(O)C(N)=O`, the logP was -0.1. With `O=[N+]([O-])c1ccc2[nH]ccc2c1`, the logP worked out at 2.53.

`O=C1OCc2c(Cl)c(Cl)c(Cl)c(Cl)c21` came in with a logP of 3.2. For `CN(N=O)C(=O)NC1C(O)OC(CO)C(O)C1O` (configuration not stated), the log partition coefficient (logP) was -1.45. In turn, `c1cncc(CN2CCCC2)c1` registered a logP of 1.1. To `O=[N+]([O-])c1ccc(O/N=C/c2cc(Br)c(O)c(Br)c2)c([N+](=O)[O-])c1` belongs 3.3; to `CC(=O)c1ccc(N(C)C)cc1`, 2.1; to `Cc1cc2ccccc2cc1C`, 4.4. To `Nc1ccc(C(=O)Oc2ccc(Br)cc2)c(O)c1` belongs 3.46; to `CC(=O)c1ccccc1S(I)=C(N(C)C)N(C)C` (configuration not stated), -0.81. Compound `c1cc2ccc3ccc4ccc5cccc6c(c1)c2c3c4c56` yielded a logP of 6.63.

The compound `C=C(Br)CC1(C(C)C)C(=O)NC(=O)N(C)C1=O` (configuration not stated) gave a logP of 2.11. As to `COc1cc([C@@H]2c3cc4c(cc3C(O[C@@H]3O[C@@H]5COC(c6cccs6)O[C@H]5[C@H](O)[C@H]3O)C3COC(=O)[C@@H]32)OCO4)cc(OC)c1O` (some centres not stated), the logP was 1.24. To `CC(Oc1ccc(Cl)cc1)C(=O)O` (configuration not stated) belongs 2.31.

Compound `CCCN1CCCN(CCC)C1=S` showed a logP of 2.83. The compound `Cc1ccsc1` displayed a logP of 2.34. Compound `O=C(Nc1ccccc1)N(c1ccccc1)c1ccccc1` yielded a log partition coefficient (logP) of 3.28.

`Clc1ccc2ccccc2n1` came in with a logP of 2.71. `OCCN1CCN(C2CC(c3ccc(F)cc3)c3ccc(C(F)(F)F)cc32)CC1` (configuration not stated) showed a logP of 4.39. To `Cc1cc(O)c(C(C)C)cc1Cl` belongs 3.92; to `c1ccc2nc(-c3ccc4ccccc4n3)ccc2c1`, 4.31.

The compound `CCC(Oc1ccccc1)C(=O)N[C@@H]1C(=O)N2[C@@H]1SC(C)(C)[C@@H]2C(=O)O` (some centres not stated) displayed a logP of 2.65. Take `C=CCCCCCCC`: the logP was determined as 5.15.

For `Oc1ccccc1C(F)(F)F`, the logP was 2.8. To `O=C(O)c1ccccc1Br` belongs 2.2.

The compound `Cc1cnnc2ccc(Cl)cc12` gave a logP of 1.96. To `Cc1ccc(Cl)cc1C` belongs 3.82. The compound `Cc1ccccc1C(=O)O` returned a logP of 2.46. The compound `CON(C)C(=O)Nc1ccc(C(=O)c2ccccc2)cc1` returned a lipophilicity (logP) of 2.86. To `C[C@]12C[C@H](O)[C@H]3[C@@H](CCC4=CC(=O)CC[C@@]43C)[C@@H]1CC[C@@H]2C(=O)CO` belongs 1.94. `CCCCOC(=O)c1ccc(S(N)(=O)=O)cc1` gave a logP of 2.34.

As for `O=C(O)c1cccc([N+](=O)[O-])c1`, the logP is 1.83.

Consider `Nc1cccc(O)c1`, for which the logP came out at 0.21. To `S=C=Nc1ccccc1` belongs 3.28.

`CCC1(c2ccccc2)C(=O)NC(=O)NC1=O` showed a logP of 1.47. To `O=C(OC(=O)c1ccccc1)c1ccccc1` belongs 2.26; to `O=C(O)COc1cccc(-c2ccccc2)c1`, 3.18; to `N#Cc1c2ccccc2cc2ccccc12`, 4.26. To `CCC(C)(C)C(=O)OC1CC(C)C=C2C=CC(C)C(CCC(O)CC(O)CC(=O)O)C21` (configuration not stated) belongs 4.47; to `FC(F)(F)F`, 1.18. `CCc1ccccc1OC(C)=O` came in with a logP of 2.42. With `CCCC(CC(C)=O)C(=O)O` (configuration not stated), the logP is 1.31. To `O=C(O)Cc1ccccc1F` belongs 1.5; to `N#CCCCc1ccccc1`, 2.21. With `Nc1ccccn1`, the logP is 0.48. In turn, `Nc1ccc(CO)cc1` showed a lipophilicity (logP) of -0.22.

As to `COc1ccc(OCC(=O)NNC(C)C)cc1`, the lipophilicity (logP) amounted to 1.21. To `CCCCCCOC(=O)c1ccc(O)cc1` belongs 4.35; to `COC(=O)C(=Cc1ccccc1)C(=O)OC`, 2.24; to `CNC(=O)Oc1ccccc1Br`, 1.77.

Turning to `NC(=O)C(=Cc1cccc(F)c1)C(N)=O`, the log partition coefficient (logP) was found to be 0.1. Regarding `O=C(C=CC(=O)c1ccccc1)c1ccccc1`, the logP came to 3.16.

The compound `CCCCOC(=O)NCC(C)c1ncc([N+](=O)[O-])[nH]1` (configuration not stated) returned a logP of 1.22. To `CCN(C)N=Nc1ccc(C(N)=O)cc1` belongs 1.69.

As to `Cc1cc([N+](=O)[O-])cc2c1NC(=O)CN=C2c1ccccc1`, the logP worked out at 2.44. To `NS(=O)(=O)c1cc2c(cc1C(F)(F)F)NCNS2(=O)=O` belongs 0.36; to `COc1c(O)c(OC)c(Cl)c(Cl)c1Cl`, 3.74; to `CC(=O)c1ccccn1`, 0.85.

In turn, `CCCc1cc(C(=O)NN)ccn1` registered a logP of 0.63.

Compound `CCc1ccc(S(I)=C(N(C)C)N(C)C)cc1` (configuration not stated) yielded a lipophilicity (logP) of 0.29. To `COC1C(O)C(C)OC(OC2CCC3(C)C(CCC4C3CCC3(C)C4(O)CC(O)C34C=CC(=O)OC4)C2)C1O` (configuration not stated) belongs 0.59; to `Clc1ccc(-c2c(Cl)cccc2Cl)cc1`, 5.75; to `COC=O`, 0.03. To `c1ccc2sccc2c1` belongs 3.12; to `Oc1ccc(C2CCCCC2)cc1`, 4.22. To `Cc1ccc(S(I)=C(N(C)C)N(C)C)c([N+](=O)[O-])c1` (configuration not stated) belongs 0.23; to `CSSC`, 1.77. Regarding `CCc1ccc(N)cc1`, the logP worked out at 1.96. To `COc1ccc(S(I)=C(N(C)C)N(C)C)c([N+](=O)[O-])c1` (configuration not stated) belongs -0.22; to `CC(C)[C@H](C(=O)OC(C#N)c1cccc(Oc2ccccc2)c1)c1ccc(OC(F)F)cc1` (some centres not stated), 6.2; to `CCCBr`, 2.1. To `CCCCS` belongs 2.28.

On to `CON(C)C(=O)Nc1ccc(OCCCCOc2ccccc2)cc1`, for which the logP was 3.57. On to `CNC(=O)Oc1ccccc1OC`, for which the logP came out at 0.81.

Take `CCn1c(=O)c2[nH]c(-c3ccccc3)nc2n(CC)c1=O`: the logP is 2.93. In turn, `NS(=O)(=O)c1cccc(Cl)c1` displayed a logP of 1.29. Regarding `Nc1ncnc2ncn(C(c3ccccc3)c3ccccc3)c12`, the logP worked out at 3.19. In turn, `CC(=O)Nc1ccc(OC(C)=O)cc1` gave a lipophilicity (logP) of 1.05. To `COc1cc(S(C)=O)ccc1-c1nc2ncncc2[nH]1` (configuration not stated) belongs 0.53; to `CCC1(CC)C(=O)NC(=O)N(C)C1=O`, 1.15. Regarding `CC(=O)c1ccccc1OCC(=O)O`, the logP is 1.25. The logP values of the last two compounds are within 0.2 log units of each other.

Compound `CCc1ccc(OC(=O)NC)cc1` registered a logP of 2.23. Consider `CCCCNC1=CC(=O)c2ccccc2C1=O`, for which the logP amounted to 3.11. Take `OCc1ccc2c(c1)OCO2`: the logP is 1.05. To `CC(=O)NC(C)C(=O)NC(Cc1ccc(O)cc1)C(=O)NC(Cc1ccccc1)C(N)=O` (stereo not drawn) (Ac-Ala-Tyr-Phe-NH2; configuration not given here) belongs 0.26; to `CCC1OC(=O)C(C)C(OC2CC(C)(OC)C(O)C(C)O2)C(C)C(OC2OC(C)CC(N(C)C)C2O)C(C)(O)CC(C)C(=O)C(C)C(O)C1C` (configuration not stated), 3.12; to `C1=Cc2ccc3c4c(ccc(c24)C1)-c1ccccc1-3`, 5.78.

`CCOC(=O)C(F)(F)F`: the logP came to 1.18.

`O=C(C(=O)c1ccccc1)c1ccccc1` had a logP of 3.38. To `COP(=S)(OC)SCn1nnc2ccccc2c1=O` belongs 2.75. Compound `O=C(NC(CO)C(O)c1ccc(Br)cc1)C(Cl)Cl` (configuration not stated) registered a logP of 1.87. On to `COC1CC(OC2CCC3(C)C(CCC4C3CCC3(C)C(C5=CC(=O)OC5)C(OC(C)=O)CC43O)C2)OC(C)C1OC(C)=O` (configuration not stated), for which the logP turned out to be 2.95. To `Clc1cc2oc3c(Cl)c(Cl)ccc3c2c(Cl)c1Cl` belongs 6.26; to `CC(C)c1cnc([N+](=O)[O-])n1C`, 1.09; to `CCC(N)Cc1ccccc1` (configuration not stated), 2.28.

In the case of `O=[N+]([O-])c1ncn(CC(O)CF)n1` (configuration not stated), the logP was -0.59. `C=CCC1(C(C)C)C(=O)NC(=O)NC1=O` registered a logP of 1.15. Turning to `CCC(=O)OCC(=O)[C@@]1(OC(=O)CC)[C@@H](C)C[C@H]2[C@@H]3CCC4=CC(=O)C=C[C@]4(C)[C@@]3(F)[C@@H](O)C[C@@]21C`, the logP is 4.07. To `FC(F)(F)c1ccc2cccnc2c1` belongs 3.02; to `NC(=O)Nc1ccc(C(O)C(CO)NC(=O)C(Cl)Cl)cc1` (configuration not stated), -0.6. In turn, `Oc1cc(O)c2ccccc2c1` displayed a logP of 1.97.

For `COc1cccnc1`, the logP came to 0.99. Regarding `CCCCCCC1(c2ccncc2)CCC(=O)NC1=O` (configuration not stated), the logP is 2.94. To `CC(=O)Nc1ccc2cccnc2c1` belongs 1.55; to `CN(C)CC(F)(F)F`, 1.06. `CC(C)(C)C1Nc2cc(Cl)c(S(N)(=O)=O)cc2S(=O)(=O)N1` (configuration not stated): the logP amounted to 0.36.

`FC(F)(F)c1nc2ccc(Br)cc2[nH]1` came in with a logP of 3.57. Compound `COP(=S)(OC)Oc1ccc([N+](=O)[O-])cc1Cl` showed a log partition coefficient (logP) of 3.58.
